Measured values from ChEMBL document CHEMBL1138227, “N1-substituted thymine derivatives as mitochondrial thymidine kinase (TK-2) inhibitors” (J Med Chem, 2006).
pIC50, pKi: −log10 of the molar value.

What was measured:
[1] = target: T1, Deoxynucleoside kinase (Drosophila melanogaster, UniProt Q9XZT6); assay: Inhibition of [3H]methyl dThd phosphorylation by Drosophila melanogaster dNK
T1 sequence (Q9XZT6 whole entry): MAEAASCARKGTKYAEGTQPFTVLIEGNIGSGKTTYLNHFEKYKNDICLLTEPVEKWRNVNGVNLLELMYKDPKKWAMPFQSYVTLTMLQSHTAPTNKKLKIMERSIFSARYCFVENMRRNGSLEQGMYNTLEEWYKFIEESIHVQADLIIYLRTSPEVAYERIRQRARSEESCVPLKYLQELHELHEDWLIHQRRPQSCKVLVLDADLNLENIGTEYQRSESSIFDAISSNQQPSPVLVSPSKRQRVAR

[2] = Cytotoxicity against human OST TK- cells expressing HSV1 TK in presence of 5 uM 1-[6-[1,1-(diphenyl)-1-(4-pyridyl)methoxy]hexyl]thymine; type: cell-based
[3] = Cytotoxicity against human OST TK- cells expressing HSV1 TK in presence of 2.5 uM 1-[6-(triphenylmethoxy)hexyl]thymine; type: cell-based
[4] = Cytotoxicity against human OST TK- cells expressing HSV1 TK in presence of 10 uM 1-[6-[1,1-(diphenyl)-1-(4-pyridyl)methoxy]hexyl]thymine; type: cell-based
[5] = Cytotoxicity against human OST TK- cells expressing HSV1 TK; type: cell-based
[6] = Cytotoxicity against human OST TK- cells expressing HSV1 TK in presence of 2.5 uM 1-[6-[1,1-(diphenyl)-1-(4-pyridyl)methoxy]hexyl]thymine; type: cell-based
[7] = Cytotoxicity against human OST TK- cells expressing HSV1 TK in presence of 5 uM 1-[6-(triphenylmethoxy)hexyl]thymine; type: cell-based
[8] = Cytotoxicity against human OST TK- cells expressing HSV1 TK in presence of 10 uM 1-[6-(triphenylmethoxy)hexyl]thymine; type: cell-based
[9] = target: T2, Thymidine kinase 2, mitochondrial (Homo sapiens, UniProt O00142); assay: Inhibition of [3H]methyl dThd phosphorylation by TK2
T2 sequence (O00142 whole entry): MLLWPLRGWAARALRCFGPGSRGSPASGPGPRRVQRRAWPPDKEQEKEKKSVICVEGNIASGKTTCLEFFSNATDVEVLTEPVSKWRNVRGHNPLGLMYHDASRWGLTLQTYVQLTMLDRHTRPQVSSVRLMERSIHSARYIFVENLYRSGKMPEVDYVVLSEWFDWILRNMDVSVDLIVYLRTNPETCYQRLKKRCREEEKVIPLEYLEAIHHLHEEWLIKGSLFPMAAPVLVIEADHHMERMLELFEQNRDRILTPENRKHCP

[10] = target: T3, Thymidine kinase (Human alphaherpesvirus 1, UniProt Q9QNF7); assay: Inhibition of [3H]methyl dThd phosphorylation by HSV1 TK
T3 sequence (Q9QNF7 whole entry): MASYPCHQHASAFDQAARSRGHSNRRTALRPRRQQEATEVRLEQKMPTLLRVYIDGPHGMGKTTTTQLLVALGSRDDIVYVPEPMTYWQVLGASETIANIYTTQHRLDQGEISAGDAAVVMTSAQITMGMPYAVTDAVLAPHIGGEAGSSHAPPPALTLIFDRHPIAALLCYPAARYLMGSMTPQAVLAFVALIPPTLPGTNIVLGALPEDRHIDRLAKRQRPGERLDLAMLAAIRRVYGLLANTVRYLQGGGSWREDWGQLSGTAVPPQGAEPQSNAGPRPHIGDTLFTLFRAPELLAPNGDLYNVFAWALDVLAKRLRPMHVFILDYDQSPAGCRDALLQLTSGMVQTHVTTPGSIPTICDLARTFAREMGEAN

[11] = target: T2, Thymidine kinase 2, mitochondrial; assay: Inhibition of TK2

Work on `Cc1cn(C/C=C\COC(c2ccccc2)(c2ccccc2)c2ccccc2)c(=O)[nH]c1=O` yielded a pIC50 [1] of 5.48.

`Cc1cn([C@@H]2O[C@H](CO)[C@@H](O)[C@@H]2O)c(=O)[nH]c1=O` gave a pIC50 [2] of 6.62, a pIC50 [3] of 7.26 and a pIC50 [4] of 6.43. The pIC50 [5] was 8.21, the pIC50 [6] was 6.92 and the pIC50 [7] was 7.00. It also gave a pIC50 [8] of 6.82.

For `Cc1cn(CCCCCOC(c2ccccc2)(c2ccccc2)c2ccccc2)c(=O)[nH]c1=O`, the pIC50 [9] was 5.60, the pIC50 [1] was 4.82 and the pIC50 [10] was 4.49.

Compound `Cc1cn(CCCCCCOC(c2ccccc2)(c2ccccc2)c2ccccc2)c(=O)[nH]c1=O` has a pIC50 [2] of 7.48, a pIC50 [9] of 6.30 and a pIC50 [3] of 7.26. The pIC50 [4] was 7.39, the pIC50 [1] was 4.77 and the pIC50 [6] was 7.74. It also gave a pIC50 [7] of 7.00, a pIC50 [10] of 5.43 and a pIC50 [8] of 6.82.

`CNC(=O)c1ccc(C(OCCCCCCn2cc(C)c(=O)[nH]c2=O)(c2ccccc2)c2ccccc2)cc1` showed a pIC50 [9] of 6.41, a pIC50 [1] of 5.46 and a pIC50 [10] of 6.15.

Compound `Cc1cn(CCCCCCCOC(c2ccccc2)(c2ccccc2)c2ccccc2)c(=O)[nH]c1=O` has a pIC50 [9] of 5.33, a pIC50 [1] of 4.49 and a pIC50 [10] of at most 4.30.

Compound `Cc1cn(CCOCCOC(c2ccccc2)(c2ccccc2)c2ccc(Cl)cc2)c(=O)[nH]c1=O` has a pIC50 [9] of 5.28, a pIC50 [1] of 4.35 and a pIC50 [10] of 5.57.

`Cc1cn(CCOCCOC(c2ccccc2)(c2ccccc2)c2ccncc2)c(=O)[nH]c1=O` showed a pIC50 [9] of 4.64, a pIC50 [1] of 4.46 and a pIC50 [10] of 4.68.

With `Cc1cn(CCOCCOC(c2ccccc2)(c2ccccc2)c2ccccc2)c(=O)[nH]c1=O` the pIC50 [9] was 5.01, the pIC50 [1] was 4.25 and the pIC50 [10] was 4.77.

`Cc1cn(C/C=C\COC(c2ccccc2)(c2ccccc2)c2cc[n+](C)cc2)c(=O)[nH]c1=O` gave a pIC50 [9] of 3.94, a pIC50 [1] of 3.84 and a pIC50 [10] of under 3.30.

Work on `Cc1cn(CCCCCCOC(c2ccccc2)(c2ccccc2)c2ccc(Cl)cc2)c(=O)[nH]c1=O` yielded a pIC50 [9] of 5.72, a pIC50 [1] of 4.33 and a pIC50 [10] of 6.00.

In the case of `Cc1cn(CCCCCCOC(c2ccccc2)(c2ccccc2)c2ccncc2)c(=O)[nH]c1=O`, the pIC50 [2] was 7.09, the pIC50 [9] was 6.33 and the pIC50 [3] was 6.92. The pIC50 [4] was 6.96, the pIC50 [1] was 5.57 and the pIC50 [6] was 7.30. The pIC50 [7] was 6.62, the pKi [11] was 6.54 and the pIC50 [10] was 5.70. For the same compound, the pIC50 [8] was 6.43.

`Cc1cn(C/C=C\COC(c2ccccc2)(c2ccccc2)c2ccc(Cl)cc2)c(=O)[nH]c1=O` gave a pIC50 [9] of 5.62, a pIC50 [1] of 5.24 and a pIC50 [10] of 4.74.

`Cc1cn(C/C=C\COC(c2ccccc2)(c2ccccc2)c2ccncc2)c(=O)[nH]c1=O` showed a pIC50 [9] of 5.74, a pIC50 [1] of 5.47 and a pIC50 [10] of 4.60.

In the case of `Cc1cn(CCCCCCCCOC(c2ccccc2)(c2ccccc2)c2ccccc2)c(=O)[nH]c1=O`, the pIC50 [9] was 4.35, the pIC50 [1] was 4.52 and the pIC50 [10] was under 3.30.

In the case of `Cc1cn(CCCOC(c2ccccc2)(c2ccccc2)c2ccccc2)c(=O)[nH]c1=O`, the pIC50 [9] was 4.35, the pIC50 [1] was 4.68 and the pIC50 [10] was 4.34.

With `CNC(=O)c1ccc(C(OC/C=C\Cn2cc(C)c(=O)[nH]c2=O)(c2ccccc2)c2ccccc2)cc1` the pIC50 [9] was 5.72, the pIC50 [1] was 5.80 and the pIC50 [10] was 4.38.

Compound `Cc1cn(CCCCCCOC(c2ccccc2)(c2ccccc2)c2cc[n+](C)cc2)c(=O)[nH]c1=O` has a pIC50 [9] of 4.64, a pIC50 [1] of 4.54 and a pIC50 [10] of 4.39.

Work on `Nc1nc2c(ncn2COC(CO)CO)c(=O)[nH]1` [GANCICLOVIR] yielded a pIC50 [2] of 7.09, a pIC50 [3] of 7.74 and a pIC50 [4] of 6.96. It also gave a pIC50 [5] of 8.72, a pIC50 [6] of 7.30 and a pIC50 [7] of 7.48. For the same compound, the pIC50 [8] was 7.39.
